{"source": "patent US20080207640A1", "about": "“Method of treating cell proliferative disorders using growth hormone secretagogues” (Sapphire Therapeutics, priority 2007, published 2008)", "type_in_all_cases": "in vivo, human", "key": {"[1]": {"test_system": "IGF-1", "assay": "Example 1 double blind, placebo controlled, randomized study: IGF-1 levels", "description": "(§1) A double blind, placebo controlled, randomized study was designed to investigate the ability of growth hormone secretagogues to be used for the treatment of cell proliferative disorders.\n(§2) Subjects were separated in to two groups: the placebo group and the RC-1291 group. The RC-1291 group received 50 mg of RC-1291 in two 25 mg capsules daily. The capsules were microcrystalline cellulose, magnesium stearate and RC-1291 HCl (25 mg) in a hard gelatin capsule. The placebo group received two placebo capsules daily. The placebo capsule was microcrystalline cellulose in a hard gelatin capsule.\n(§3) One hour before breakfast subjects were administered the two capsules after fasting during the night.\n(§4) At various points over the course of the three month study, levels of IGFBP-3 and IGF-1 were measured in both the placebo and RC-1291 groups."}, "[2]": {"test_system": "IGFBP-3", "assay": "Example 1 double blind, placebo controlled, randomized study: IGFBP-3 levels", "description": "as §1, §2, §3, §4"}, "[3]": {"test_system": "IGF-1", "assay": "Example 2 second double blind, placebo controlled, randomized study: serum IGF-1", "settings": "for IGF-1: serum", "description": "(§5) A second double blind, placebo controlled, randomized study was designed to investigate the ability of growth hormone secretagogues to be used for the treatment of cell proliferative disorders.\n(§6) Subjects were separated into groups and administered a placebo or RC-1291 (Formula III). Each group was administered the appropriate number of capsules. The capsules were microcrystalline cellulose, magnesium stearate and RC-1291 HCl (25 mg) in a hard gelatin capsule. The placebo capsule was microcrystalline cellulose in a hard gelatin capsule. The RC-1291 groups received 50 mg or 100 mg of RC-1291 daily.\n(§7) Serum was obtained at office visits, clearly labeled, and stored frozen at −20° C. prior to shipment on dry ice to CRL, Lenexa, Kans. for analysis. Samples were assayed for IGF-1 and IGFBP-3."}, "[4]": {"test_system": "IGFBP-3", "assay": "Example 2 second double blind, placebo controlled, randomized study: serum IGFBP-3", "settings": "for IGFBP-3: serum", "description": "as §5, §6, §7"}, "[5]": {"assay": "Example 3 cancer cachexia: lean body mass and total body mass by DEXA, subjects of Example 1", "settings": "FIG. 11", "description": "(§8) The placebo controlled, randomized studies described above were used to investigate the ability of growth hormone secretagogues to treat subjects having cancer cachexia.\n(§9) Total body mass and lean body mass were measured for subjects described in Example 1 (see FIGS. 10, and 11, respectively.) Lean body mass and total body mass were measured by dual-energy x-ray absorptiometry (DEXA). Total body weight was measured for subjects described in Example 2 (see, FIG. 12)."}, "[6]": {"assay": "Example 3 cancer cachexia: total body weight, subjects of Example 2", "settings": "50 and 100 mg, FIG. 12", "description": "as §8, §9"}, "[7]": {"settings": "50 mg RC-1291 daily, capsules, at 4 weeks, N = 32"}, "[8]": {"settings": "50 mg RC-1291 daily, capsules, at 8 weeks, N = 32"}, "[9]": {"settings": "50 mg RC-1291 daily, capsules, at 12 weeks, N = 32"}, "[10]": {"settings": "Example 1, 50 mg daily, vs placebo"}, "[11]": {"settings": "Example 2, 50 mg or 100 mg daily, vs placebo"}}, "note": "Values joined by “and” are separate entries in the source; they are usually repeats but may differ in a detail not shown here. Identical values can stand only once."}
{"molecule": "CN(C)N(C)C(=O)[C@@]1(Cc2ccccc2)CCCN(C(=O)[C@@H](Cc2c[nH]c3ccccc23)NC(=O)C(C)(C)N)C1", "note": "[RC-1291]", "values": [{"measurement": "IGF-1 change from baseline (nM) At 4 weeks", "setting": "[1]; [7]", "result": 6.626, "unit": "nM"}, {"measurement": "IGF-1 change from baseline (nM) At 8 weeks", "setting": "[1]; [8]", "result": 4.729, "unit": "nM"}, {"measurement": "IGF-1 change from baseline (nM) At 12 weeks", "setting": "[1]; [9]", "result": 5.046, "unit": "nM"}, {"measurement": "levels of IGF-1 (in words)", "setting": "[1]; [10]", "result": "raises the levels of both IGFBP-3 and IGF-1 in a statistically significant manner"}, {"measurement": "IGFBP-3 change from baseline (nM) At 4 weeks", "setting": "[2]; [7]", "result": 26.89, "unit": "nM"}, {"measurement": "IGFBP-3 change from baseline (nM) At 8 weeks", "setting": "[2]; [8]", "result": 17.7, "unit": "nM"}, {"measurement": "IGFBP-3 change from baseline (nM) At 12 weeks", "setting": "[2]; [9]", "result": 20.66, "unit": "nM"}, {"measurement": "effects on IGFBP-3 relative to effects on IGF-1, on a molar basis", "setting": "[2]; Example 1, 50 mg daily", "result": "greater than 3 fold"}, {"measurement": "levels of IGFBP-3 (in words)", "setting": "[2]; [10]", "result": "raises the levels of both IGFBP-3 and IGF-1 in a statistically significant manner"}, {"measurement": "IGF-1", "setting": "[3]; 50 mg daily, week 1", "result": "40.69 ng/mL and 5.32 nM"}, {"measurement": "IGF-1", "setting": "[3]; 50 mg daily, week 2", "result": "57 ng/mL and 7.45 nM"}, {"measurement": "IGF-1", "setting": "[3]; 50 mg daily, week 4", "result": "46.5 ng/mL and 6.08 nM"}, {"measurement": "IGF-1", "setting": "[3]; 100 mg daily, week 1", "result": "80.25 ng/mL and 10.49 nM"}, {"measurement": "IGF-1", "setting": "[3]; 100 mg daily, week 2", "result": "76.25 ng/mL and 9.97 nM"}, {"measurement": "IGF-1", "setting": "[3]; 100 mg daily, week 4", "result": "73.4 ng/mL and 9.60 nM"}, {"measurement": "levels of IGF-1 (in words)", "setting": "[3]; [11]", "result": "raised the levels of both IGFBP-3 and IGF-1 in a statistically significant manner"}, {"measurement": "IGFBP-3", "setting": "[4]; 50 mg daily, week 1", "result": "580 ng/mL and 20.19 nM"}, {"measurement": "IGFBP-3", "setting": "[4]; 50 mg daily, week 2", "result": "540 ng/mL and 18.79 nM"}, {"measurement": "IGFBP-3", "setting": "[4]; 50 mg daily, week 4", "result": "610 ng/mL and 21.23 nM"}, {"measurement": "IGFBP-3", "setting": "[4]; 100 mg daily, week 1", "result": "900 ng/mL and 31.32 nM"}, {"measurement": "IGFBP-3", "setting": "[4]; 100 mg daily, week 2", "result": "670 ng/mL and 23.32 nM"}, {"measurement": "IGFBP-3", "setting": "[4]; 100 mg daily, week 4", "result": "970 ng/mL and 33.76 nM"}, {"measurement": "levels of IGFBP-3 (in words)", "setting": "[4]; [11]", "result": "raised the levels of both IGFBP-3 and IGF-1 in a statistically significant manner"}, {"measurement": "change in lean body mass (in words)", "setting": "[5]", "result": "gained lean body mass and total body weight"}, {"measurement": "change in total body weight (in words)", "setting": "[6]", "result": "gained lean body mass and total body weight"}]}
